# Data: patent US20250305004A1, “ENHANCING GENE TARGETING EFFICIENCY IN HUMAN CELLS WITH DNA-PK INHIBITOR TREATMENT” (The Board of Trustees of the Leland Stanford Junior …, priority 2022, published 2025)
# What was measured:
# Assay type in all cases: cell-based, human
# HBA1 locus in PSCs = test: RNP/AAV6 gene targeting / gene replacement at HBA1 locus in PSCs; settings: 0.5 μM
# Description: Gene targeting efficiency was measured by droplet digital PCR (ddPCR) and flow cytometry (for GFP) to measure the allelic targeting efficiency (FIG. 2B) and percentage of targeted cells (FIG. 2C) respectively. […] The treatment was carried out for 24 hours post gene targeting and the efficiency was calculated 1 week post gene targeting using ddPCR analysis.
# First, we tested the treatment for editing the sickle cell disease (SCD) and cystic fibrosis (CF) mutations at HBB and CFTR loci respectively using the previously described Cas9 RNP and AAV6 donor reagents in WT PSC^71-73 (FIG. 19a-d).
# PSC culture and genome editing. […] For each nucleofection, RNP complex was prepared with 5 μg of Cas9 protein and 2 μg of gRNA and incubated for 15 mins at room temperature. PSCs were dissociated into single cells using Accutase (Innovative Cell Technologies, cat: AT104). […] Resuspended cells were added to one well of a 16-well Nucleocuvette Strip (Lonza) and nucleofection was performed in the 4D nucleofector (Lonza) using the program, CA137. Nucleofected PSCs were plated in mTeSR1 medium supplemented with 10 μM of Y27632 at a density of 100,000 cells per well in 48-well plate, AAV6 vector and DNA-PKcs inhibitors were added to the medium at indicated concentrations. […] From the following day, PSCs were cultured in mTeSR1 without Y27632. Gene targeting efficiency was analyzed at 4-6 days post-editing.
# ddPCR analysis of targeted integration. Gene targeting efficiency for the knock-in of multi-kb sequences was measured through digital droplet PCR (ddPCR) analysis. […] After PCR, the droplets were analyzed using the QX200 Droplet Digital PCR reader (Biorad) and Quantasoft software was used to determine the number of copies of the target and reference DNA in the droplets. The allelic gene targeting efficiency was calculated as the percentage of target DNA copies relative to that of the reference. […]
# (§1) ICE analysis for quantification of gene editing. […] Following PCR, the amplicons were detected on agarose gel and purified from the gel using GeneJet Gel Extraction Kit (Thermo Fisher Scientific, cat: K0692). […]
# CCR5 locus in HSPCs = test: RNP/AAV6 gene targeting at CCR5 locus in CD34+ HSPCs; settings: two stop codons; sg1 and sg4
# Description: ddPCR analysis of targeted integration. Gene targeting efficiency for the knock-in of multi-kb sequences was measured through digital droplet PCR (ddPCR) analysis. For this, genomic DNA was extracted from cells using the QuickExtract™ DNA Extraction Solution (QE) (Lucigen, Cat: QE09050). Pellets of 100,000 to 200,000 cells were resuspended in 40 to 50 μl of QE solution. This cell suspension was incubated at 65° C. for 6 mins and then 100° C. for 10 mins. The quick extracted genomic DNA was digested with either BamHI-HF or HindIII-HF (NEB) enzymes at 37° C. for 1 to 2 hours. […] 40 μl of the generated droplet sample was used for the PCR with the following cycle: 95° C. for 10 mins, 50 cycles of 94° C. for 30 secs, 60° C. for 30 secs and 72° C. for 2 mins and 98° C. for 10 mins. After PCR, the droplets were analyzed using the QX200 Droplet Digital PCR reader (Biorad) and Quantasoft software was used to determine the number of copies of the target and reference DNA in the droplets. The allelic gene targeting efficiency was calculated as the percentage of target DNA copies relative to that of the reference. […]
# as §1
# [1] = tested on: top off-target sites of HBB, CCR5 and HBA1 gRNAs in HSPCs; test: NGS off-target analysis in gene targeted HSPCs
# Excerpt: For this, we assessed the previously characterized top off-target site for CCR5 (OT39)^66, HBB (OT1)^72 and HBA1 (OT1)74 gRNAs in the gene targeted HSPCs using next generation sequencing (NGS). […] Blocking of specific off-target breaks is possible, however, if there were biologically important reasons to do so^79, 80. […] Thus, gene editing with AZD treatment increases the frequency alleles with WT sequence and deletion INDELs without the HDR donor template.
# NGS analysis for off-target effects. For this, we used commercially available Amplicon-EZ next generation sequencing service from AZENTA, Inc. Previously characterized top off-target site for CCR5 (OT39), HBB (OT1) and HBA1 (OT1) gRNAs were analyzed. PCR was used to amplify a 350-450 bp region encompassing the off-target sites from genomic DNA of the gene targeted HSPCs. Following are the primers used for PCR,
# Following PCR, the amplicons were purified using Genejet PCR purification kit (Thermo Fisher Scientific, cat: K0701). The samples were normalized to a concentration of 20 ng/μl and 25 μl volume was submitted for Amplicon-EZ NGS service (AZENTA, Inc). DNA library preparations, sequencing reactions, and bioinformatics analysis were conducted at AZENTA, Inc. DNA Library Preparation was done using NEBNext Ultra DNA Library Prep kit following the manufacturer's recommendations (NEB). […] DNA libraries were validated on the Agilent TapeStation (Agilent Technologies) and were quantified using Qubit 2.0 Fluorometer (Invitrogen) and multiplexed in equal molar mass. […] The raw Illumina reads were checked for adapters and quality via FastQC. The raw Illumina sequence reads were trimmed of their adapters and nucleotides with poor quality using Trimmomatic v.0.36. Paired sequence reads were then merged to form a single sequence if the forward and reverse reads were able to overlap. The merged reads were aligned to the reference sequence and variant detection was performed using AZENTA proprietary Amplicon-EZ program. INDEL frequency at the target site was quantified and plotted as the frequency of reads with insertions and deletions.
# STING1 locus in HSPCs = test: RNP/AAV6 gene targeting at STING1 locus in HSPCs; settings: seemingly inactive gRNA (sg5)
# Excerpt: ICE analysis for quantification of gene editing.
# CD34+ HSPC culture and genome editing.
# PI3K family of kinases = test: Western blot, phosphorylation of AKT (Ser473) by PI3K family kinases in PSC; settings: 2 h
smiles,measurement,setting,value
"Cc1cc2ncnn2cc1Nc1ncc2c(n1)n(C1CCOCC1)c(=O)n2C [AZD7648, 7-methyl-2-((7-methyl-[1,2,4]triazolo[l,5-a]pyridin-6-yl)amino)-9-(tetrahydro-2H-pyran-4-yl)-7,9-dihydro-8H-purin-8-one]",effect on gene targeting vs untreated,HBA1 locus in PSCs,enhanced the gene targeting significantly
same,INDELs after gene targeting,CCR5 locus in HSPCs,INDEL-free HDR
same,reads with INDELs at off-target site,"[1]; OT1 site for HBA1 gRNA, untreated […]",around 0.5%
same,reads with INDELs at off-target site,"[1]; OT1 site for HBB gRNA, 0.5 μM, untreated 1%",about 3%
same,reads with INDELs at off-target site,"[1]; OT39 site for CCR5 gRNA, untreated below detection limit",0.03%
same,INDELs after gene targeting,STING1 locus in HSPCs,no INDELs
same,phosphorylation of AKT (Ser473),PI3K family of kinases,did not affect the phosphorylation of AKT
